From ChEMBL document CHEMBL3046771, “Synthesis, spectral, and antimicrobial evaluation of some new 8-membered phosphorus heterocyclic compounds” (2011)

Columns and labels:
Format in all cases: functional
[1] = test system: Escherichia coli; assay: Antibacterial activity against Escherichia coli at 25 ppm by disk diffusion method; design: unit not given here
[2] = test system: Escherichia coli; assay: Antibacterial activity against Escherichia coli at 50 ppm by disk diffusion method; design: unit not given here
[3] = test system: Aspergillus niger; assay: Antifungal activity against Aspergillus niger at 50 ppm by disk diffusion method; design: unit not given here
[4] = test system: Staphylococcus aureus; assay: Antibacterial activity against Staphylococcus aureus at 50 ppm by disk diffusion method
[5] = test system: Staphylococcus aureus; assay: Antibacterial activity against Staphylococcus aureus at 25 ppm by disk diffusion method; design: unit not given here
[6] = test system: Aspergillus niger; assay: Antifungal activity against Aspergillus niger at 25 ppm by disk diffusion method; design: unit not given here
[7] = test system: Escherichia coli; assay: Antibacterial activity against Escherichia coli at 100 ppm by disk diffusion method; design: unit not given here
[8] = test system: Aspergillus niger; assay: Antifungal activity against Aspergillus niger at 100 ppm by disk diffusion method; design: unit not given here
[9] = test system: Helminthosporium; assay: Antifungal activity against Helminthosporium oryzae at 100 ppm by disc diffusion method; design: unit not given here
[10] = test system: Staphylococcus aureus; assay: Antibacterial activity against Staphylococcus aureus at 100 ppm by disk diffusion method; design: unit not given here
[11] = test system: Helminthosporium; assay: Antifungal activity against Helminthosporium oryzae at 25 ppm by disc diffusion method; design: unit not given here
[12] = test system: Helminthosporium; assay: Antifungal activity against Helminthosporium oryzae at 50 ppm by disc diffusion method; design: unit not given here

Structure (SMILES) | inhibition zone (IZ) [1] | inhibition zone (IZ) [2] | inhibition zone (IZ) [3] | inhibition zone (IZ) [4] [%] | inhibition zone (IZ) [5] | inhibition zone (IZ) [6] | inhibition zone (IZ) [7] | inhibition zone (IZ) [8] | inhibition zone (IZ) [9] | inhibition zone (IZ) [10] | inhibition zone (IZ) [11] | inhibition zone (IZ) [12]
S=P1(CBr)CNc2cccc3cccc(c23)NC1 | 3 | 5 | 5 | 11 | 9 | 3 | 10 | 9 | 13 | 13 | 9 | 11
CC(NCP1(=[Se])CNc2cccc3cccc(c23)NC1)c1ccccc1 (centres undefined) | 3 | 5 | 9 | 9 | 5 | 6 | 10 | 12 | 9 | 11 | 5 | 8
CC(Cc1ccccc1)OCP1(=[Se])CNc2cccc3cccc(c23)NC1 (centres undefined) | 7 | 8 | 8 | 10 | 7 | 7 | 10 | 10 | 12 | 12 | 7 | 10
CC(NCP1(=S)CNc2cccc3cccc(c23)NC1)c1ccccc1 (centres undefined) | 6 | 7 | 7 | 7 | 8 | 6 | 11 | 9 | 12 | 12 | 8 | 7
CCC(C)OCP1(=S)CNc2cccc3cccc(c23)NC1 (centres undefined) | 9 | 10 | 10 | 12 | 8 | 9 | 14 | 14 | 13 | 13 | 8 | 12
CCC(C)OCP1(=[Se])CNc2cccc3cccc(c23)NC1 (centres undefined) | 8 | 10 | 10 | 10 | 7 | 8 | 13 | 13 | 14 | 14 | 7 | 10
CCC(CO)NCP1(=[Se])CNc2cccc3cccc(c23)NC1 (centres undefined) | 7 | 6 | 6 | 6 | 8 | 4 | 19 | 9 | 10 | 10 | 6 | 9
CC(Cc1ccccc1)OCP1(=S)CNc2cccc3cccc(c23)NC1 (centres undefined) | 8 | 9 | 9 | 9 | 7 | 8 | 8 | 13 | 10 | 10 | 7 | 9
[Se]=P1(CBr)CNc2cccc3cccc(c23)NC1 | 4 | 6 | 6 | 8 |  | 4 | 12 | 10 | 9 | 9 |  | 8
CCC(CO)NCP1(=S)CNc2cccc3cccc(c23)NC1 (centres undefined) | 8 | 10 | 10 | 9 | 5 | 8 | 10 | 10 | 11 | 11 | 5 | 9
CC1(C)S[C@@H]2[C@H](NC(=O)Cc3ccccc3)C(=O)N2[C@H]1C(=O)O [PENICILLIN G] |  |  |  | 8 |  |  |  |  |  |  |  | 
